In ChEMBL document CHEMBL1268864, “Dolabranes from the Chinese Mangrove, Ceriops tagal” (2010):
The source made the active and inactive calls. The rule behind the calls is not given here.

Key:
Brontispa longissima [1] = assay: Antifeedant activity against third-instar larvae of Brontispa longissima at 1 mg/ml after 24 hrs by leaf disk method; type: functional
Brontispa longissima [2] = assay: Antifeedant activity against third-instar larvae of Brontispa longissima at 0.5 mg/ml after 24 hrs by leaf disk method; type: functional
Brontispa longissima [3] = assay: Antifeedant activity against third-instar larvae of Brontispa longissima at 0.1 mg/ml after 24 hrs by leaf disk method; type: functional
Brontispa longissima [4] = assay: Antifeedant activity against third-instar larvae of Brontispa longissima at 1 mg/ml after 48 hrs by leaf disk method; type: functional
Brontispa longissima [5] = assay: Antifeedant activity against third-instar larvae of Brontispa longissima at 0.5 mg/ml after 48 hrs by leaf disk method; type: functional
Brontispa longissima [6] = assay: Antifeedant activity against third-instar larvae of Brontispa longissima at 0.1 mg/ml after 48 hrs by leaf disk method; type: functional
A2058 = assay: Cytotoxicity against human A2058 cells by MTT assay; type: functional, cell-based
G-361 = assay: Cytotoxicity against human G361 cells by MTT assay; type: functional, cell-based
DU-145 = assay: Cytotoxicity against human DU145 cells by MTT assay; type: functional, cell-based
MDA-MB-468 = assay: Cytotoxicity against human MDA-MB-468 cells by MTT assay; type: functional, cell-based
MDA-MB-435 = assay: Cytotoxicity against human MDA-MB-435 cells by MTT assay; type: functional, cell-based

| SMILES | Activity (Brontispa longissima [1]) [%] | Activity (Brontispa longissima [2]) [%] | Activity (Brontispa longissima [3]) [%] | Activity (Brontispa longissima [4]) [%] | Activity (Brontispa longissima [5]) [%] | Activity (Brontispa longissima [6]) [%] | Activity (A2058) | Activity (G-361) | Activity (DU-145) | Activity (MDA-MB-468) | Activity (MDA-MB-435) |
| --- | --- | --- | --- | --- | --- | --- | --- | --- | --- | --- | --- |
| C=C1C(=O)CC[C@@H]2[C@@]3(C)CC[C@](C)(C(O)CO)C[C@@H]3CC[C@]12C (stereo partly specified) [TAGALSIN U] | 52 | 41 | 14 | 41 | 31 | 10 | inactive | inactive | inactive | inactive | inactive |
| C[C@]1(C(=O)CO)CC[C@@]2(C)[C@@H](CC[C@]3(C)/C(=C/O)C(=O)CC[C@H]23)C1 [TAGALSIN S] | 51 | 45 | 25 | 47 | 37 | 36 | inactive | inactive | inactive | inactive | inactive |
| C[C@]1(C(=O)O)CC[C@@]2(C)[C@@H](CC[C@]3(C)/C(=C/O)C(=O)CC[C@H]23)C1 [TAGALSIN R] | 40 | 37 | 18 | 28 | 30 | 7 | inactive | inactive | inactive | inactive | inactive |
| C=C1C(=O)C=C[C@@H]2[C@@]3(C)CC[C@](C)(O)C[C@@H]3CC[C@]12C [TAGALSIN Q] | 53 | 50 | 23 | 43 | 36 | 30 | inactive | inactive | inactive | inactive | inactive |
| C[C@]1(C(O)CO)CC[C@@]2(C)[C@@H](CC[C@]3(C)/C(=C/O)C(=O)CC[C@H]23)C1 (stereo partly specified) [TAGALSIN T] | -5 | -11 | -32 | -20 | -31 | -48 | inactive | inactive | inactive | inactive | inactive |
| CC1=C(O)C(=O)C[C@@H]2[C@@]3(C)CC[C@](C)(O)C[C@@H]3CC[C@]12C [TAGALSIN P] | 48 | 18 | 14 | 22 | 6 | 2 | inactive | inactive | inactive | inactive | inactive |
